We go through one molecule from ChEMBL document CHEMBL5385908, “Screening Ultra-Large Encoded Compound Libraries Leads to Novel Protein-Ligand Interactions and High Selectivity” (J Med Chem, 2024).

For this assay, the target named is T1, Proteinase-activated receptor 2 (Homo sapiens, UniProt P55085).
T1 sequence (P55085 whole entry): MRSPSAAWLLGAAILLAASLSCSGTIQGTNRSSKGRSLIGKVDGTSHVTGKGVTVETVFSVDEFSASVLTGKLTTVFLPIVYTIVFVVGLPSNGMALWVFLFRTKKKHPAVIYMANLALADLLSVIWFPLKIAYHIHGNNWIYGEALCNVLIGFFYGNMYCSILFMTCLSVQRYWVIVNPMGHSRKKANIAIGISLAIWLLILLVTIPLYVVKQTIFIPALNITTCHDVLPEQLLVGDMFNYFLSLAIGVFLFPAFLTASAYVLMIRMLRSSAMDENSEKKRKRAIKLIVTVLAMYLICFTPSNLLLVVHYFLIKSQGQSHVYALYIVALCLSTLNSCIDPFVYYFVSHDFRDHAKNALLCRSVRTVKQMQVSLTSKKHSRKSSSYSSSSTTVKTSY
Briefly: Binding affinity to PAR2 (unknown origin) assessed as inhibition constant.

On to `NCCCC[C@H](NC(=O)CNC(=O)Nc1ccc2c(c1)c(CN1CCCC1)cn2Cc1c(Cl)cccc1Cl)C(=O)N[C@@H](Cc1ccccc1)C(=O)NC(c1ccccc1)c1ccccc1`, for which the Ki (usually a dissociation constant, usually derived from enzyme kinetics or from competition with a known ligand) is 670 nM.
